The record followed here is patent US10246486B2, “Macrocyclic inhibitors of flaviviridae viruses” (Gilead Sciences, Inc., priority 2012, dated 2019).

The target in test [1] is cyclophilin A (Homo sapiens, UniProt P62937). Nature of the test: biochemical.
Test [2] deals with HCV replicon 1a (human hepatoma Huh-7 cell line harboring a HCV replicon). Nature of the test: microbe, parasite or virus in culture. The test is classed as cell-based.

By IC50 is commonly meant the concentration that inhibits the measured activity by half. The inhibition is the share of the control response that was lost under treatment.

Structures are written as SMILES.

Chain of cyclophilin A (P62937 whole entry, species assumed): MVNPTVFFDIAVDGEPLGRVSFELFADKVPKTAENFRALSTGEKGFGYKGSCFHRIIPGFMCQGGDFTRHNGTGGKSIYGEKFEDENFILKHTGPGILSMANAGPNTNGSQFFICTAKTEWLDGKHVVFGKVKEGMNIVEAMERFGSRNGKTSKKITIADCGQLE

Take `CC(C)[C@@H]1NC(=O)/C=C\c2cc3cc(ccc3cn2)[C@@H](C)NC(=O)[C@@H]2CCCN(N2)C(=O)[C@H](C)NC1=O` [Example 12]: the IC50 in test [1] lay in the range of 1 to 10 µM.
Consider `CC(C)[C@@H]1NC(=O)C(C)(C)/C=C/c2ccc3ccc(nc3c2)[C@@H](C(F)(F)F)NC(=O)[C@@H]2CCCN(N2)C(=O)[C@H](C)NC1=O` [Example 13], for which, in test [2], the “Replicon 1a % inhibition at 1 μm” value turned out to be 87%.
With `CC(C)[C@@H]1NC(=O)C(C)(C)c2cccc(c2)-c2cc3cc(ccc3cn2)[C@@H](C)OC(=O)[C@@H]2CCCN(N2)C(=O)[C@H](C)NC1=O` [Compound 67], the inhibition at 1 µM in test [2] (Hepatitis C virus, Huh-7, 72 h, read-out: Replicon 1a % inhibition at 1 μm) came to 97%.
Consider `CC(C)[C@@H]1NC(=O)[C@@H]([C@H](C)O)/C=C/c2ccc3ccc(nc3c2)[C@@H](C)OC(=O)[C@@H]2CCCN(N2)C(=O)[C@H](C)NC1=O` [Example 31], for which the IC50 in test [1] was < 0.1 µM.
In the case of `CC(C)[C@@H]1NC(=O)[C@H](C)/C=C/c2ccc3ccc(nc3c2)[C@@H](C)OC(=O)[C@@H]2CCCN(N2)C(=O)[C@H](C)NC1=O` [Example 26], the “Replicon 1a % inhibition at 1 μm” value in test [2] was 99%.
